Among the data in patent publication US20090029992A1, “SUBSTITUTED PYRAZOLE COMPOUNDS” (priority 2007, published 2009) are IC50 and GI50 values, retold here.

One experiment addresses T1, recombinant Aurora A (Homo sapiens, UniProt O14965).
T1 construct: purchased Upstate, Lake Placid, N.Y
T1 sequence (O14965 1-403): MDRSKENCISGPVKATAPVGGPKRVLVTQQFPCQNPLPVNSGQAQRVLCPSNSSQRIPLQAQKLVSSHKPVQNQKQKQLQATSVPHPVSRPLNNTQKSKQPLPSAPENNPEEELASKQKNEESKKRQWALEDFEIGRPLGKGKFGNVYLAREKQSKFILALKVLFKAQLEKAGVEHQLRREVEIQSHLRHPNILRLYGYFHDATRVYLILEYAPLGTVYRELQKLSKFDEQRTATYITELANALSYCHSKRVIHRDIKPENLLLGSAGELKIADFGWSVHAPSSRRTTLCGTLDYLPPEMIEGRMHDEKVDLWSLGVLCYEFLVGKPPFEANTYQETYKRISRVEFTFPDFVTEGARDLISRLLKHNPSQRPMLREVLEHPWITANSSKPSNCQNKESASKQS
As to the kind of experiment: Aurora A (Aurora 2) inhibition assay, Z'-Lyte kinase assay. In kind it is biochemical. The settings on record: ATP 10 μM, 1 h. The gist of the method:
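Z'-Lyte FRET assay: Aurora A (200-500 ng/mL final), Ser/Thr 1 peptide (2 μM) and ATP (10 μM) in 50 mM HEPES pH 7.5, 10 mM MgCl2, 5 mM EGTA, 0.05% Brij-35, 2 mM DTT, 1 h at room temperature. Coumarin/fluorescein emission ratio converted to percent phosphorylation; dose-response curves plotted.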

For experiment [1], the target named is T2, N-terminal His6-tagged recombinant human KDR, residues 790-end (Homo sapiens, UniProt P35968).
T2 construct: recombinant human KDR, residues 790-end; His6 (N); purchased Upstate USA Inc, 706 Forest Street, Charlottesville, Va
As to the kind of experiment: KDR kinase inhibition assay (33P-ATP filter assay). It is filed as biochemical. The gist of the method:
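Radiometric filter assay: reaction started with Mg acetate (10 mM)/[γ-33P]ATP mix, run 40 min at room temperature in 8 mM MOPS pH 7.0 with 0.2 mM EDTA, MBP substrate (0.33 mg/mL) and recombinant KDR 790-end (5-10 mU). Phosphate incorporation by scintillation counting of P30 filtermats, compared with uninhibited reactions.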

The next experiment deals with HCT116 cells. As to the kind of experiment: Whole cell cytotoxicity assay, Sulforhodamine B. It is filed as cell-based. The settings on record: Homo sapiens, HCT-116, HCT116, 96 hours incubation, SRB; for IC50: read-out: IC50 values in this assay (HCT116 cell growth); for GI50: read-out: GI50 HCT116 cell growth. The gist of the method:
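HCT116 cells (500/well) in DMEM/10% FBS/2 mM glutamine were preincubated 24 h, then exposed to compound for 96 h at 37 °C, 5% CO2, in duplicate. Cells were fixed with TCA and stained with sulforhodamine B (A570). GI50, TGI and LC50 were derived relative to a time-zero plate and an untreated control.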

Setting [2] is: group with IC50 greater than 100 nM.

SMILES strings stand for the structures.

What is called IC50 is the midpoint of a concentration-inhibition curve. By GI50 is commonly meant the concentration that inhibits growth by half.

T2 sequence (P35968 790-1356 limits assumed): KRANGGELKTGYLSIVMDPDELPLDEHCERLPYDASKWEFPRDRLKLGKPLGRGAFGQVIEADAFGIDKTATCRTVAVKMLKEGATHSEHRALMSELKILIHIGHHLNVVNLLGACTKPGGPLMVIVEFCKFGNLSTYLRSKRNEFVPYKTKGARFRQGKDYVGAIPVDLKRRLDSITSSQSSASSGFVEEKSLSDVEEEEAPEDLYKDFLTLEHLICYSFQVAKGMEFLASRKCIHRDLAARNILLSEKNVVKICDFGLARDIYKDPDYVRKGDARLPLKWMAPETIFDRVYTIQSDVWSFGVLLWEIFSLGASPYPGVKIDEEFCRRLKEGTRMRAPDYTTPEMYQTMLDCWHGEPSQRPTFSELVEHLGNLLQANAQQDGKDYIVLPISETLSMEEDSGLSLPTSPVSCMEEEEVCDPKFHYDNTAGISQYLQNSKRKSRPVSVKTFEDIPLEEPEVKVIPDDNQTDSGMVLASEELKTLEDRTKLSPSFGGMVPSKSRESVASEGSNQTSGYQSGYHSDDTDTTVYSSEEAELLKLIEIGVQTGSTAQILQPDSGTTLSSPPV

Consider `CCc1ccccc1-c1nc(Nc2cc(C)[nH]n2)cc(N2CCN(C)CC2)n1` [Example 175, 2-(2-ethylphenyl)-N-(5-methyl-1H-pyrazol-3-yl)-6-(4-methylpiperazin-1-yl)pyrimidin-4-amine], for which the half-inhibitory concentration (IC50) at recombinant Aurora A (setting [2]) was no more than 1 µM; in experiment [1] (40 minutes at room temperature) it was no more than 0.1 µM; in the experiment on HCT116 cells, 1 to 10 µM.
With `Cc1cc(Nc2cc(N3CCN(C)CC3)nc(-c3cc(F)ccc3C)n2)n[nH]1` [Example 196, 2-(5-fluoro-2-methylphenyl)-N-(5-methyl-1H-pyrazol-3-yl)-6-(4-methylpiperazin-1-yl)pyrimidin-4-amine], the IC50 was no more than 1 µM on recombinant Aurora A (setting [2]) and no more than 0.1 µM in experiment [1] (40 minutes at room temperature). Also, the GI50 in the experiment on HCT116 cells is no more than 1 µM.
As for `COc1cc(OC)cc(-c2nc(Nc3cc(C)[nH]n3)cc(N3CCN(C)CC3)n2)c1` [Example 191, 2-(3,5-dimethoxyphenyl)-N-(5-methyl-1H-pyrazol-3-yl)-6-(4-methylpiperazin-1-yl)pyrimidin-4-amine], the IC50 (on recombinant Aurora A; in experiment [1] (40 minutes at room temperature)) was no more than 0.1 µM in each case. The GI50 in the experiment with HCT116 cells was no more than 1 µM.
With `Cc1cc(Nc2cc(NC3CCOCC3)nc(-c3cc(F)ccc3F)n2)n[nH]1` [Example 185, 2-(2,5-difluorophenyl)-N^4-(5-methyl-1H-pyrazol-3-yl)-N^6-(tetrahydro-2H-pyran-4-yl)pyrimidine-4,6-diamine], the results for the half-inhibitory concentration (IC50) (on recombinant Aurora A; in experiment [1] (40 minutes at room temperature); with HCT116 cells) were no more than 0.1 µM, no more than 0.1 µM and 1 to 10 µM, respectively.
For the compound `Cc1cc(Nc2cc(N3CCN(C)CC3)nc(-c3ccc(F)cc3)n2)n[nH]1` [Compound 32, 2-(4-fluorophenyl)-N-(5-methyl-1H-pyrazol-3-yl)-6-(4-methylpiperazin-1-yl)pyrimidin-4-amine], the concentration for half-maximal inhibition (IC50) at recombinant Aurora A is no more than 0.1 µM; in experiment [1] (setting [2]) it was no more than 1 µM. Also, the 50% growth inhibitory concentration (GI50) in the experiment with HCT116 cells was no more than 1 µM.
